Results on two substances are retold here after patent publication US20140162966A1, “NANOPARTICLES FOR DELIVERY OF LIGANDS” (The U.S.A, as represented by the Secretary, Department of …, priority 2012, published 2014).

In data set [1] the test system is subcutaneous 4T1-fluc tumors. The data set is described as follows: in vivo gene silencing in 4T1-fluc xenograft mouse model (in vivo BLI). More on the design: species or system Balb/C mice. The conditions noted are these: 72 hours after intratumor injection; siLuc 100 pmol and/or NPs 200 ug in 80 uL. The protocol:
Four groups of Balb/C mice (n=5 per group) with subcutaneous 4T1-fluc tumors were treated with an intratumor injection of 80 uL of a buffer solution that contained siLuc/HADPA-Zn-NPs (100 pmol/200 ug), HADPA-Zn-NPs (200 ug), naked siLuc (100 pmol), or phosphate-buffered saline (PBS). The silencing of the fluc gene was measured by in vivo BLI. […] In contrast the control groups had increased levels of fluc expression ((30.0±4.1) %, (38.2±3.9)%, and (39.2±5.3)%, for HADPA-Zn-NPs, naked siRNA, and PBS, respectively, FIG. 8). The tumors from each group were harvested and weighed after BLI to determine whether the apparent gene silencing effect was a result of a reduction in the volume of the tumors as a consequence of the toxicity of the formulation. As shown by the […] testing, there was no significant difference in the neoplastic weights of the tumors between the various groups.

The subject of another data set is 4T1-fluc cells. The data set is described as follows: cellular uptake of Cy3-labeled siRNA. It counts as cell-based. The protocol:
CD44 expression was confirmed by flow cytometry. The red fluoresecence from Cy3-labeled siRNA was more intense in 4T1-fluc cells that were treated with siRNA/HADPA-Zn-NPs than in the cells that were treated with Lipofectamine 2000 (Lipo2K)/siRNA. […] Furthermore, the uptake of siRNA/HADPA-Zn-NPs into 4T1-fluc cells was 3.7±0.5-fold higher than the uptake into 293T cells.

With “naked siRNA: siRNA that targets the firefly luciferase gene, SEQUENCE ID NO. 1 and 2, without carrier (chain 1 GCACUCUGAUUGACAAAUACGAUUU; chain 2 AAAUCGUAUUUGUCAAUCAGAGUGC; listed as RNA, chemistry not given here)”, the “relative level of fluc expression” value in data set [1] was 38.2±3.9%.

Turning to Zn-dipicolylamine [Zn-DPA], the “fluorescence observed in treated cells” value with 4T1-fluc cells is listed as “no fluorescence was observed”.
